Test results published in PubChem BioAssay AID1223 (NMMLSC, 2008).
Calls of active or inactive are those of the source.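 How the source made its calls: active means total score of at least 50 of 100, built from tracer displacement at 10 µM, potency and curve span; inactive means total score under 50.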

Target: Estrogen receptor (Homo sapiens) (UniProt P03372)
Assay: ERalpha binding competitors, concentration series, dose response, cell-based, Cos7 ERalpha-GFP, flow cytometry (AID 1223)
Details: E2-Alexa633 competitive binding

Sequence of Estrogen receptor (Homo sapiens) (P03372 whole entry, looked up): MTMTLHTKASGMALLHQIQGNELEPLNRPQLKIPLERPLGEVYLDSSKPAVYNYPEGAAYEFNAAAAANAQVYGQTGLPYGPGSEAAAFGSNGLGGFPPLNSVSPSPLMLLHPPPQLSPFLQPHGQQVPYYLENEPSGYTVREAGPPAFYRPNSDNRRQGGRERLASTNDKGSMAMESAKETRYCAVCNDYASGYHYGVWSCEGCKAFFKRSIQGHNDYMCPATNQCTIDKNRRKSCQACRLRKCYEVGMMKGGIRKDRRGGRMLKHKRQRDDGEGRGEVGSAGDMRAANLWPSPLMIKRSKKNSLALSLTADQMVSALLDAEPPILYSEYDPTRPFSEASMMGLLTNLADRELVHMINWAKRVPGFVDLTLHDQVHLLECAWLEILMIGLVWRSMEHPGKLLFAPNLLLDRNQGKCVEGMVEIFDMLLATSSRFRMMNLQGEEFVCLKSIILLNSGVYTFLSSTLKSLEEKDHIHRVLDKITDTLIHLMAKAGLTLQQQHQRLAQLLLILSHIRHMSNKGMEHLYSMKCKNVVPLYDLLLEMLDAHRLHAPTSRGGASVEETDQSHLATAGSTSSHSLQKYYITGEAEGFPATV

Q: With `CCC(=O)Oc1ccc(/C(CC)=C(\CC)c2ccc(OC(=O)CC)cc2)cc1` as the molecule, how does the fluorescent ligand binding remaining (at 10 µM (top of the series)) read?
A: The fluorescent ligand binding remaining was 22.8%.

Q: How did the “fluorescent ligand binding remaining” value (at 10 µM (top of the series)) turn out when `Cc1cc(-c2nn3c(-c4ccccc4)nnc3s2)c2ccccc2n1` was run?
A: The value was “inactive”.

Q: How did the “fluorescent ligand binding remaining” value (at 10 µM (top of the series)) turn out when `O=C1/C(=C\c2ccco2)SC(=S)N1c1ccc(O)cc1` was run?
A: Its value is “inactive”.

Q: `C[C@H]1CCC[C@@H](O)CCC/C=C/c2cc(O)cc(O)c2C(=O)O1` was tested. Which “fluorescent ligand binding remaining” value (at 10 µM (top of the series)) did it give?
A: Its value is “inactive”.

Q: With `CC(=O)c1ccc2c(c1)C1C=CCC1C(c1ccc(S(=O)(=O)N3CCOCC3)cc1)N2` (stereo unspecified) as the molecule, how does the “fluorescent ligand binding remaining” value (at 10 µM (top of the series)) read?
A: The value was “inactive”.

Q: With `CCCCCCNC(=O)c1cc(-c2ccco2)nc2ccccc12` as the molecule, how does the “fluorescent ligand binding remaining” value (at 10 µM (top of the series)) read?
A: Its value is “inactive”.

Q: Which “fluorescent ligand binding remaining” value (at 10 µM (top of the series)) does the source give for `O=C1NC(c2ccc(Br)cc2)Nc2sc3c(c21)CCC3` (stereo unspecified) here?
A: Its value is “inactive”.

Q: For `Cc1cc(C)c2c(c1)NC(c1cc3c(cc1Br)OCO3)C1CC=CC21` (stereo unspecified), which “fluorescent ligand binding remaining” value (at 10 µM (top of the series)) is on record?
A: The value was “inactive”.

Q: With `COc1ccc(/C=N/NC(=O)c2nc(-c3ccccc3)cc(-c3ccccc3)n2)cc1O` as the molecule, how does the fluorescent ligand binding remaining (at 10 µM (top of the series)) read?
A: The fluorescent ligand binding remaining was 44.4%.

Q: For `O=C(O)c1ccc([N+](=O)[O-])c2c1NC(c1ccccc1)C1CC=CC21` (stereo unspecified), which “fluorescent ligand binding remaining” value (at 100 µM (top of the series)) is on record?
A: The value was “inactive”.

Q: How did the fluorescent ligand binding remaining (at 10 µM (top of the series)) turn out when `CCC(=O)Oc1ccc(C(CC)C(CC)c2ccc(OC(=O)CC)cc2)cc1` (stereo unspecified) was run?
A: Its fluorescent ligand binding remaining is 19.9%.

Q: Which “fluorescent ligand binding remaining” value (at 10 µM (top of the series)) does the source give for `Cc1ccc(-n2c(=O)c(C#N)cc3c(=O)n4cccc(C)c4nc32)cc1` here?
A: Its value is “inactive”.

Q: Which “fluorescent ligand binding remaining” value (at 10 µM (top of the series)) does the source give for `CCc1ccc(-c2nn(-c3ccccc3)cc2CSC(=N)N)cc1` here?
A: Its value is “inactive”.

Q: With `Cc1cc([N+](=O)[O-])c2c(c1C)C1C=CCC1C(c1ccccn1)N2` (stereo unspecified) as the molecule, how does the fluorescent ligand binding remaining (at 10 µM (top of the series)) read?
A: Its fluorescent ligand binding remaining is 27.9%.

Q: Which fluorescent ligand binding remaining (at 10 µM (top of the series)) does the source give for `CCn1nnc(NC(=O)CSc2ccc(Cl)cc2)n1` here?
A: Its fluorescent ligand binding remaining is 68.5%.

Q: For `Oc1ccc(-c2nc(-c3ccc(O)c(O)c3)cs2)cc1`, which “fluorescent ligand binding remaining” value (at 10 µM (top of the series)) is on record?
A: The value was “inactive”.

Q: Which “fluorescent ligand binding remaining” value (at 10 µM (top of the series)) does the source give for `CCc1nc2sc3ccccc3c(=O)c2c(=O)n1Cc1ccco1` here?
A: Its value is “inactive”.

Q: Which fluorescent ligand binding remaining (at 10 µM (top of the series)) does the source give for `Cc1oc2cc(O)ccc2c(=O)c1Oc1ccccc1` here?
A: Its fluorescent ligand binding remaining is 42%.

Q: For `CC(=O)Nc1ccc(OC(=O)CC2SC(=O)NC2=O)cc1` (stereo unspecified), which “fluorescent ligand binding remaining” value (at 10 µM (top of the series)) is on record?
A: Its value is “inactive”.

Q: `COc1ccc(NC(=O)C(c2ccccc2)N(C)C(=O)c2ccc(=O)[nH]c2)cc1` (stereo unspecified) was tested. Which fluorescent ligand binding remaining (at 10 µM (top of the series)) did it give?
A: The fluorescent ligand binding remaining was 50.7%.

Q: For `COc1cccc(C2Nc3c(F)cc(Br)cc3C3C=CCC32)c1OC` (stereo unspecified), which “fluorescent ligand binding remaining” value (at 10 µM (top of the series)) is on record?
A: The value was “inactive”.

Q: With `O=C(O)c1ccc2c(c1)C1C(Cl)C(Sc3ccccc3[N+](=O)[O-])CC1C(c1cccc([N+](=O)[O-])c1)N2` (stereo unspecified) as the molecule, how does the “fluorescent ligand binding remaining” value (at 10 µM (top of the series)) read?
A: The value was “inactive”.

Q: How did the “fluorescent ligand binding remaining” value (at 10 µM (top of the series)) turn out when `CCCCOC(=O)c1c(C)oc2ccc(NS(=O)(=O)c3ccc4c5c(cccc35)C(=O)N4)cc12` was run?
A: Its value is “inactive”.

Q: With `Nc1ccc(-c2nc3ccc([N+](=O)[O-])cc3[nH]2)cc1` as the molecule, how does the fluorescent ligand binding remaining (at 10 µM (top of the series)) read?
A: The fluorescent ligand binding remaining was 63.9%.

Q: Which “fluorescent ligand binding remaining” value (at 10 µM (top of the series)) does the source give for `CCNC(=O)c1ccc2c(c1)C1C3CCC(C3)C1C(c1ccccc1)N2` (stereo unspecified) here?
A: The value was “inactive”.

Q: With `O=C(Cc1cccs1)Nc1ccc(S(=O)(=O)Nc2ncccn2)cc1` as the molecule, how does the “fluorescent ligand binding remaining” value (at 10 µM (top of the series)) read?
A: The value was “inactive”.

Q: With `C[C@]12CC[C@@H]3c4ccc(O)cc4C(=O)C[C@H]3[C@@H]1CC[C@@H]2O` as the molecule, how does the “fluorescent ligand binding remaining” value (at 10 µM (top of the series)) read?
A: The value was “inactive”.

Q: For `Cc1nn(-c2ccccc2)c(/N=C/c2ccc(O)cc2)c1-c1ccccc1`, which “fluorescent ligand binding remaining” value (at 10 µM (top of the series)) is on record?
A: The value was “inactive”.

Q: For `Oc1ccc(-c2nc3ccc4ccccc4c3c3c2CCC3)cc1O`, which “fluorescent ligand binding remaining” value (at 10 µM (top of the series)) is on record?
A: Its value is “inactive”.

Q: Which “fluorescent ligand binding remaining” value (at 10 µM (top of the series)) does the source give for `Cc1ccc(C(=O)N/N=C/c2ccc([N+](=O)[O-])s2)cc1` here?
A: The value was “inactive”.

Q: `C/C=C(/C(=C/C)c1ccc(O)cc1)c1ccc(O)cc1` was tested. Which “fluorescent ligand binding remaining” value (at 10 µM (top of the series)) did it give?
A: Its value is “inactive”.

Q: For `Nc1ncnc2c1ncn2C1CCC(CO)C(O)C1` (stereo unspecified), which “fluorescent ligand binding remaining” value (at 10 µM (top of the series)) is on record?
A: The value was “inactive”.

Q: With `CCn1c(=NC(=O)c2ccc(N3C(=O)CCC3=O)cc2)sc2c(OC)ccc(OC)c21` as the molecule, how does the EC50 read?
A: The EC50 was > 10 µM (inactive).

Q: Which “fluorescent ligand binding remaining” value (at 10 µM (top of the series)) does the source give for `O=S(=O)(NCCc1csc(-c2cccnc2)n1)c1ccc(Cl)s1` here?
A: The value was “inactive”.

Q: How did the “fluorescent ligand binding remaining” value (at 10 µM (top of the series)) turn out when `O=C(c1cc2ncc(Br)cn2n1)N1CCN(C(=O)c2ccco2)CC1` was run?
A: Its value is “inactive”.

Q: How did the “fluorescent ligand binding remaining” value (at 10 µM (top of the series)) turn out when `N=C1C(c2nc3ccccc3[nH]2)=C(O)CN1c1ccc(CC(=O)O)cc1` was run?
A: The value was “inactive”.
